These results are taken from US12534455B2, “Phthalazine derivatives as P2X3 inhibitors” (CHIESI FARMACEUTICI S.P.A., priority 2020, dated 2026).

For one test, the target named is T1, h P2X3 (Homo sapiens, UniProt P56373).
T1 sequence (P56373 1-397): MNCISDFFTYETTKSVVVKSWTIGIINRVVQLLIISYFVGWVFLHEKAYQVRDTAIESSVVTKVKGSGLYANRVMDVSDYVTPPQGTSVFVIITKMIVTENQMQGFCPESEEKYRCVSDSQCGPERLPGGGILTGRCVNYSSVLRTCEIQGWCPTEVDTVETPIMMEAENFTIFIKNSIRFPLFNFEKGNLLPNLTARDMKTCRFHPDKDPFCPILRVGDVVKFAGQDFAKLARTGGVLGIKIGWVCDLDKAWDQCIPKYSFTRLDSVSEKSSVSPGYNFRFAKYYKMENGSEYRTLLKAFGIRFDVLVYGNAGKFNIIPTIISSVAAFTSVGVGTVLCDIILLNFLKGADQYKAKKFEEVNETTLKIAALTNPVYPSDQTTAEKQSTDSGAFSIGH
As to the kind of experiment: In vitro electrophysiology assay for P2X3 (Sophion Qube automated patch-clamp, α,β-MeATP agonist). In kind it is cell-based. The following applies: for h P2X3 (pIC50 range of activity): Table 3. The method, then:
Pharmacological Activity of the Compounds of the Invention. In Vitro Electrophysiology Assay for P2X3
Cells expressing P2X3 receptors were grown according to standard practice and maintained at 37° C. in a 5% humidified CO2 atmosphere. The cells were seeded into T175 flask 2 days prior to the day of the assay and dissociated from the flasks using TrypLE when grown to confluence of 80-90%. The dissociated cells were resuspended in serum free media at a cell density of 3×10^6 cells/ml and loaded onto the Sophion Qube automated patch-clamp system. The extracellular assay buffer contained 145 mM NaCl, 4 mM KCl, 2 mM CaCl2, 1 mM MgCl2, 10 mM HEPES, and 10 mM glucose at pH 7.4. The intracellular assay solution contained 140 mM CsF, 10 mM NaCl, 10 mM EGTA, 10 mM HEPES at pH 7.2. Agonist stock solutions were prepared in H2O and diluted in bath solution prior to use. All antagonists were prepared as 10 mM stock solutions in DMSO and diluted in bath solution prior to use. All experiments were performed under the whole-cell patch clamp configuration at room temperature with 384 individual cells being voltage clamped at −60 mV simultaneously on the Sophion Qube instrument. Two baseline responses were established with the application of α,β-MeATP (800 nM), with the subsequent agonist applications being washed out using extracellular assay buffer containing 0.5 U/ml apyrase. Following the second agonist application, antagonist was incubated in the absence of α,β-MeATP for 10 minutes. After antagonist preincubation, 800 nM α,β-MeATP and antagonist were co-administered to determine the inhibitory effect of the antagonist. One concentration of an antagonist was assessed against a single cell, with different concentrations of the antagonist applied to other cells on the 384 recording substrate. The control P2X3 current amplitude was taken from the peak current amplitude from the second agonist response prior to preincubation with antagonist. The peak P2X3 current amplitude in the presence of antagonist was used to calculate the inhibitory effect at each concentration of the antagonist according to the following equation: Percentage inhibition of P2X3=(P2X3 control peak amplitude-P2X3 antagonist peak amplitude)/P2X3 control peak amplitude)*100
Concentration-response curves were constructed from ten different concentrations with each concentration of antagonist tested on at least two individual cells. The concentration of the antagonist to inhibit P2X3 current by 50% (IC50) was determined by fitting the data with the following equation: Y=a+[(b−a)/(1+10^((log c−x)d)]
Where ‘a’ is minimum response, ‘b’ is maximum response, ‘c’ is IC50 and ‘d’ is Hill slope.
The results for individual compounds are provided below in Table 2 and are expressed as range of activity.

In the next test the target is T2, h P2X2/3 (Homo sapiens, UniProt P56373+Q9UBL9).
T2 construct: same protocol as the P2X3 assay
T2 sequence (P56373 1-397): T1 sequence (P56373 1-397)
T2 sequence (Q9UBL9 1-471): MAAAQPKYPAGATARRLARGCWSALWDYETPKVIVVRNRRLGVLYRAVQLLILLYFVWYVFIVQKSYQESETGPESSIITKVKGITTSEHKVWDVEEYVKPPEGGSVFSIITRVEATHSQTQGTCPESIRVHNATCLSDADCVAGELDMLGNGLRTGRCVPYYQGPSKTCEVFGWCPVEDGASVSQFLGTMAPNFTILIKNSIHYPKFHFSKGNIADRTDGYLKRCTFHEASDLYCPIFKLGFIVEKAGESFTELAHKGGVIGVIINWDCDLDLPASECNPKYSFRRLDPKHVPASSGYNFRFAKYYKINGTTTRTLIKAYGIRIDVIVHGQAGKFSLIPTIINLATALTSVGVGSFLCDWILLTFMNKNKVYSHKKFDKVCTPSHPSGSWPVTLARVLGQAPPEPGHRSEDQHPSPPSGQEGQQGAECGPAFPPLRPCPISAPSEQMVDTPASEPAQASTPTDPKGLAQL
As to the kind of experiment: In vitro electrophysiology assay for P2X2/3 (same protocol, 10 μM ATP agonist). The test is classed as cell-based. As to conditions: Table 3; 10 μM ATP as agonist, mean current amplitude seven seconds after agonist; read-out: h P2X2/3 (pIC50 range of activity) (converted). Here is the method:
Cells expressing P2X3 receptors were grown according to standard practice and maintained at 37° C. in a 5% humidified CO2 atmosphere. The cells were seeded into T175 flask 2 days prior to the day of the assay and dissociated from the flasks using TrypLE when grown to confluence of 80-90%. The dissociated cells were resuspended in serum free media at a cell density of 3×10^6 cells/ml and loaded onto the Sophion Qube automated patch-clamp system. The extracellular assay buffer contained 145 mM NaCl, 4 mM KCl, 2 mM CaCl2, 1 mM MgCl2, 10 mM HEPES, and 10 mM glucose at pH 7.4. The intracellular assay solution contained 140 mM CsF, 10 mM NaCl, 10 mM EGTA, 10 mM HEPES at pH 7.2. Agonist stock solutions were prepared in H2O and diluted in bath solution prior to use. All antagonists were prepared as 10 mM stock solutions in DMSO and diluted in bath solution prior to use. […] One concentration of an antagonist was assessed against a single cell, with different concentrations of the antagonist applied to other cells on the 384 recording substrate. […]
The same assay protocol was used for the P2X2/3 assay as the P2X3 assay with two modifications: 1) 10 μM ATP was used as the agonist; and 2) the mean current amplitude was measured seven seconds after the application of agonist.

The mark [1] stands for this setting: Table 2, whole-cell patch clamp, 800 nM α,β-MeATP, 10 min antagonist preincubation, read-out: h P2X3 (pIC50 range of activity) (converted).
The mark [2] stands for this setting: whole-cell patch clamp, 800 nM α,β-MeATP.

Molecules are shown by their SMILES. Read-outs that look alike come from different tables or passages of the source.

Take `Cc1ccc([C@@H](C)Nc2nnc(C3CCOCC3)c3ccc(-c4ccc(F)cc4)cc23)nn1` [Example 7, (R)-7-(4-Fluorophenyl)-N-(1-(6-methylpyridazin-3-yl)ethyl)-4-(tetrahydro-2H-pyran-4-yl)phthalazin-1-amine]: the IC50 on h P2X3 (setting [1]) is below 316 nM. `Cc1cnc(-c2ccc3c(CC4CCOCC4)nnc(NCc4nc(C(F)(F)F)no4)c3c2)s1` [Example 14, 7-(5-Methylthiazol-2-yl)-4-((tetrahydro-2H-pyran-4-yl)methyl)-N-((3-(trifluoromethyl)-1,2,4-oxadiazol-5-yl)methyl)phthalazin-1-amine]: the IC50 at h P2X3 (setting [1]) is 316 to 3160 nM. On the same count and under the same terms, under `Cc1ccc(C(C)Nc2nnc(C3CCOCC3)c3ccc(-c4ccn(C)n4)cc23)nn1` (stereo not drawn) [Example 17, 7-(1-Methylpyrazol-3-yl)-N-[1-(6-methylpyridazin-3-yl)ethyl]-4-tetrahydropyran-4-yl-phthalazin-1-amine] stands 316 to 3160 nM.

In the case of `Cc1ccc(CNc2nncc3ccc(-c4ncc(C)s4)cc23)nn1` [Example 13, N-[(6-Methylpyridazin-3-yl)methyl]-7-(5-methylthiazol-2-yl)phthalazin-1-amine], the IC50 at h P2X3 (setting [1]) is below 316 nM. For `Cc1ccc(C(C)Nc2nnc(C3CCOCC3)c3ccc(-c4ccc(F)cn4)cc23)nn1` (single isomer, unassigned) [Example 11, 7-(5-Fluoropyridin-2-yl)-N-(1-(6-methylpyridazin-3-yl)ethyl)-4-(tetrahydro-2H-pyran-4-yl)phthalazin-1-amine], the IC50 at h P2X3 (setting [1]) is 316 to 3160 nM.

As for `Cc1ccc([C@@H](C)Nc2nnc(C3CC3)c3ccc(-c4ccc(F)cc4)cc23)nn1` [Example 5, (R)-4-Cyclopropyl-7-(4-fluorophenyl)-N-(1-(6-methylpyridazin-3-yl)ethyl)phthalazin-1-amine], the IC50 on h P2X2/3 was 316 to 3160 nM; at h P2X3 (setting [1]), below 316 nM. Further, the “h P2X3 (pIC50 range of activity)” value at h P2X3 (setting [2]) is recorded as “+++ (+++: pIC50 h P2X3 or h P2X2/3>6.5)”. With `Cc1ccc(CNc2nnc(CC3CCOCC3)c3ccc(-c4ncc(C)s4)cc23)nn1` [Example 15, N-((6-Methylpyridazin-3-yl)methyl)-7-(5-methylthiazol-2-yl)-4-((tetrahydro-2H-pyran-4-yl)methyl)phthalazin-1-amine], the IC50 at h P2X3 (setting [1]) is 316 to 3160 nM.

As to `Cc1cnc(-c2ccc3c(C4CCOCC4)nnc(NCc4ccc(C)nn4)c3c2)nc1` [Example 1, N-((6-Methylpyridazin-3-yl)methyl)-7-(5-methylpyrimidin-2-yl)-4-(tetrahydro-2H-pyran-4-yl)phthalazin-1-amine], the values for the IC50 at h P2X2/3 and at h P2X3 (setting [1]) were 3160 to 31600 nM and 316 to 3160 nM, respectively. Also, at h P2X3 (setting [2]), the “h P2X3 (pIC50 range of activity)” value was “++ (++: 6.5<pIC50 h P2X3 or h P2X2/3>5.5)”. Regarding `Cc1ccc(CNc2nccc3ccc(-c4ccc(F)cc4)cc23)nn1` [Comparative Example A, reference compound], the IC50 on h P2X3 (in vitro assay on P2X3 as described above, read-out: activity on receptor P2X3 expressed as pIC50 (converted)) was above 3160 nM. For the molecule `Cc1ccc(C(C)Nc2nnc(C3CC3)c3ccc(-c4ccn(C)n4)cc23)nn1` (stereo not drawn) [Example 19, 4-Cyclopropyl-7-(1-methyl-1H-pyrazol-3-yl)-N-(1-(6-methylpyridazin-3-yl)ethyl)phthalazin-1-amine], at h P2X3 (setting [1]), the IC50 was 316 to 3160 nM. Still for that read-out and setting: to `Fc1ccc(-c2ccc3cnnc(NCC4CC4)c3c2)cc1` [Example 2, N-(Cyclopropylmethyl)-7-(4-fluorophenyl)phthalazin-1-amine] belongs 316 to 3160 nM. For the molecule `Cc1ccc(CNc2nncc3ccc(-c4ccc(F)cc4)cc23)nn1` [Example 3, 7-(4-Fluorophenyl)-N-((6-methylpyridazin-3-yl)methyl)phthalazin-1-amine], the IC50 on h P2X3 (setting [1]) was below 316 nM. As to `Cc1ccc(CNc2nnc(CC3CCOCC3)c3ccc(-c4ccc(F)cn4)cc23)nn1` [Example 10, 7-(5-Fluoropyridin-2-yl)-N-((6-methylpyridazin-3-yl)methyl)-4-((tetrahydro-2H-pyran-4-yl)methyl)phthalazin-1-amine], on h P2X3 (setting [1]), the IC50 is 316 to 3160 nM.

Turning to `Cc1ccc(CNc2nnc(C3CCOCC3)c3ccc(-c4ccc(F)cn4)cc23)nn1` [Example 9, 7-(5-Fluoropyridin-2-yl)-N-((6-methylpyridazin-3-yl)methyl)-4-(tetrahydro-2H-pyran-4-yl)phthalazin-1-amine], the IC50 on h P2X3 (setting [1]) was 316 to 3160 nM. For `Cc1ccc(C(C)Nc2nnc(C3CC3)c3ccc(-c4ccn(C)n4)cc23)nn1` (racemic) [Example 16, 4-Cyclopropyl-7-(1-methyl-1H-pyrazol-3-yl)-N-(1-(6-methylpyridazin-3-yl)ethyl)phthalazin-1-amine], the IC50 on h P2X3 (setting [1]) is 316 to 3160 nM. Take `C[C@@H](Nc1nnc(C2CCOCC2)c2ccc(-c3ccc(F)cc3)cc12)c1cnc(C(F)(F)F)nc1` [Example 6, (R)-7-(4-Fluorophenyl)-4-(tetrahydro-2H-pyran-4-yl)-N-(1-(2-(trifluoromethyl)pyrimidin-5-yl)ethyl)phthalazin-1-amine]: at h P2X3 (setting [1]), the IC50 was 316 to 3160 nM. On the same count and under the same terms, to `C[C@@H](Nc1nnc(C2CC2)c2ccc(-c3ccc(F)cc3)cc12)c1cnc(C(F)(F)F)nc1` [Example 4, (R)-4-Cyclopropyl-7-(4-fluorophenyl)-N-(1-(2-(trifluoromethyl)pyrimidin-5-yl)ethyl)phthalazin-1-amine] belongs 316 to 3160 nM.
